Bridge positions count the residues as written; N and C are the ends. Square brackets hold non-standard residues; d marks the D form. Peptide text beside a SMILES is read from it. Pro(4R-NH2) = N[C@H]1CN[C@H](C(=O)O)C1; Gly(N-2-aminoethyl) = NCCNCC(=O)O; Hyp = O=C(O)[C@@H]1C[C@@H](O)CN1; Gly(N(CH2)3NH2) = NCCCNCC(=O)O; Pen = CC(C)(S)[C@H](N)C(=O)O; dDab = NCC[C@@H](N)C(=O)O; Dab = NCC[C@H](N)C(=O)O; Nlys = NCCCCNCC(=O)O
What was measured:
[1] = tested on: human red blood cells (hRBC); assay: Hemolysis of human red blood cells; assay type: cell-based; conditions: red cells of human, 1 h
Summary of the method: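 PBS-washed human red blood cells (20% v/v) were incubated with peptide at 200 μg/mL for 1 h at 37 °C with shaking. Supernatant OD was read at 540 nm after 8-fold dilution. Hemolysis is expressed as percent of the water control.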

[2] = tested on: Klebsiella pneumoniae SSI3010; conditions: SSI3010
Summary of the method: (§1)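 Two-fold serial dilutions of peptide, in water with polysorbate 80 (0.002% final), met bacteria adjusted to 0.5 McFarland then diluted to about 5×10^5 CFU/mL. Medium was cation-adjusted Mueller-Hinton II broth; peptide stocks were 1 mg/mL in sterile water.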

[3] = tested on: Escherichia coli ATCC 25922; conditions: ATCC 25922
Summary of the method: as §1

[4] = tested on: Escherichia coli MCR-1 Af 45; conditions: MCR-1 Af 45
Summary of the method: as §1

| SMILES | Hemolysis at 0.2 g/L [1] | Klebsiella pneumoniae SSI3010 MIC [2] | Escherichia coli ATCC 25922 MIC [3] | Escherichia coli MCR-1 Af 45 MIC [4] |
| --- | --- | --- | --- | --- |
| CC[C@H](C)[C@H](NC(=O)[C@@H]1C[C@@H](O)CN1C(=O)[C@@H](NC(=O)[C@@H]1C[C@@H](O)CN1C(=O)CNCCCN)C(C)C)C(=O)N[C@H](C(=O)N[C@@H](Cc1ccc(O)cc1)C(=O)N[C@@H]1C(=O)N[C@@H](CC(N)=O)C(=O)N[C@@H](CCCNC(=N)N)C(=O)N[C@@H](CCN)C(=O)N[C@@H]([C@@H](C)O)C(=O)N[C@H](CCN)C(=O)N[C@@H](CCCCN)C(=O)N[C@H](C(=O)N[C@@H](CCN)C(=O)N[C@@H](CCCNC(=N)N)C(=O)N[C@@H](Cc2ccc(O)cc2)C(=O)O)CSSC1(C)C)[C@@H](C)O [Example 42, Norn-Hyp-Val-Hyp-Ile-Thr-Tyr-Pen-Asn-Arg-Dab-Thr-^DDab-Lys-Cys-Dab-Arg-Tyr] (HELM PEPTIDE1{[NCCCNCC(=O)[*:2]].[Hyp].V.[Hyp].I.T.Y.[Pen].N.R.[Dab].T.[NCC[C@@H](N[*:1])C(=O)[*:2]].K.C.[Dab].R.Y}$PEPTIDE1,PEPTIDE1,8:R3-15:R3$$$V2.0) | 0% | 0.25 µg/mL | 0.125 µg/mL | 0.125 µg/mL |
| CC[C@H](C)[C@H](NC(=O)[C@@H]1C[C@@H](N)CN1C(=O)[C@@H](NC(=O)[C@@H]1C[C@@H](O)CN1C(=O)[C@@H](N)CCCCN)C(C)C)C(=O)N[C@H](C(=O)N[C@@H](Cc1ccc(O)cc1)C(=O)N[C@@H]1C(=O)N[C@@H](CC(N)=O)C(=O)N[C@@H](CCCNC(=N)N)C(=O)N[C@@H](CCN)C(=O)N[C@@H]([C@@H](C)O)C(=O)N[C@H](CCN)C(=O)N[C@@H](CCCCN)C(=O)N[C@H](C(=O)N[C@@H](CCN)C(=O)N[C@@H](CCCNC(=N)N)C(=O)N[C@@H](Cc2ccc(O)cc2)C(=O)O)CSSC1(C)C)[C@@H](C)O [Example 43, Lys-Hyp-Val-Pro((4R)NH2)-Ile-Thr-Tyr-Pen-Asn-Arg-Dab-Thr-^DDab-Lys-Cys-Dab-Arg-Tyr] (HELM PEPTIDE1{K.[Hyp].V.[N[C@@H]1C[C@@H](C(=O)[*:2])N([*:1])C1].I.T.Y.[Pen].N.R.[Dab].T.[NCC[C@@H](N[*:1])C(=O)[*:2]].K.C.[Dab].R.Y}$PEPTIDE1,PEPTIDE1,8:R3-15:R3$$$V2.0) | 0% | 0.125 µg/mL | 0.125 µg/mL | 0.125 µg/mL |
| CC[C@H](C)[C@H](NC(=O)[C@@H]1C[C@@H](N)CN1C(=O)[C@@H](NC(=O)[C@@H]1C[C@@H](O)CN1C(=O)CNCCN)C(C)C)C(=O)N[C@H](C(=O)N[C@@H](Cc1ccc(O)cc1)C(=O)N[C@@H]1C(=O)N[C@@H](CC(N)=O)C(=O)N[C@@H](CCCNC(=N)N)C(=O)N[C@@H](CCN)C(=O)N[C@@H]([C@@H](C)O)C(=O)N[C@H](CCN)C(=O)N[C@@H](CCCCN)C(=O)N[C@H](C(=O)N[C@@H](CCN)C(=O)N[C@@H](CCCNC(=N)N)C(=O)N[C@@H](Cc2ccc(O)cc2)C(=O)O)CSSC1(C)C)[C@@H](C)O [Example 44, Ndab-Hyp-Val-Pro((4R)NH2)-Ile-Thr-Tyr-Pen-Asn-Arg-Dab-Thr-^DDab-Lys-Cys-Dab-Arg-Tyr] (H-[Gly(N-2-aminoethyl)][Hyp]V[Pro(4R-NH2)]ITY[Pen]NR[Dab]T[dDab]KC[Dab]RY-OH; disulfide 8-15) | 0% | 0.25 µg/mL | 0.25 µg/mL | 0.125 µg/mL |
| CC[C@H](C)[C@H](NC(=O)[C@@H]1C[C@@H](N)CN1C(=O)[C@@H](NC(=O)[C@@H]1C[C@@H](O)CN1C(=O)CNCCCN)C(C)C)C(=O)N[C@H](C(=O)N[C@@H](Cc1ccc(O)cc1)C(=O)N[C@@H]1C(=O)N[C@@H](CC(N)=O)C(=O)N[C@@H](CCCNC(=N)N)C(=O)N[C@@H](CCN)C(=O)N[C@@H]([C@@H](C)O)C(=O)N[C@H](CCN)C(=O)N[C@@H](CCCCN)C(=O)N[C@H](C(=O)N[C@@H](CCN)C(=O)N[C@@H](CCCNC(=N)N)C(=O)N[C@@H](Cc2ccc(O)cc2)C(=O)O)CSSC1(C)C)[C@@H](C)O [Example 45, Norn-Hyp-Val-Pro((4R)NH2)-Ile-Thr-Tyr-Pen-Asn-Arg-Dab-Thr-^DDab-Lys-Cys-Dab-Arg-Tyr] (H-[Gly(N(CH2)3NH2)][Hyp]V[Pro(4R-NH2)]ITY[Pen]NR[Dab]T[dDab]KC[Dab]RY-OH; disulfide 8-15) | 0% | 0.125 µg/mL | 0.0625 µg/mL | 0.0625 µg/mL |
| CC[C@H](C)[C@H](NC(=O)[C@@H]1C[C@@H](N)CN1C(=O)[C@@H](NC(=O)[C@@H]1C[C@@H](O)CN1C(=O)CNCCCCN)C(C)C)C(=O)N[C@H](C(=O)N[C@@H](Cc1ccc(O)cc1)C(=O)N[C@@H]1C(=O)N[C@@H](CC(N)=O)C(=O)N[C@@H](CCCNC(=N)N)C(=O)N[C@@H](CCN)C(=O)N[C@@H]([C@@H](C)O)C(=O)N[C@H](CCN)C(=O)N[C@@H](CCCCN)C(=O)N[C@H](C(=O)N[C@@H](CCN)C(=O)N[C@@H](CCCNC(=N)N)C(=O)N[C@@H](Cc2ccc(O)cc2)C(=O)O)CSSC1(C)C)[C@@H](C)O [Example 46, Nlys-Hyp-Val-Pro((4R)NH2)-Ile-Thr-Tyr-Pen-Asn-Arg-Dab-Thr-^DDab-Lys-Cys-Dab-Arg-Tyr] (H-[Nlys][Hyp]V[Pro(4R-NH2)]ITY[Pen]NR[Dab]T[dDab]KC[Dab]RY-OH; disulfide 8-15) | 0% | 0.125 µg/mL | ≤0.03125 µg/mL | ≤0.03125 µg/mL |
| CC[C@H](C)[C@H](NC(=O)CN(CCN)C(=O)[C@@H](NC(=O)[C@@H]1C[C@@H](O)CN1C(=O)[C@@H](N)CCCCN)C(C)C)C(=O)N[C@H](C(=O)N[C@@H](Cc1ccc(O)cc1)C(=O)N[C@@H]1C(=O)N[C@@H](CC(N)=O)C(=O)N[C@@H](CCCNC(=N)N)C(=O)N[C@@H](CCN)C(=O)N[C@@H]([C@@H](C)O)C(=O)N[C@H](CCN)C(=O)N[C@@H](CCCCN)C(=O)N[C@H](C(=O)N[C@@H](CCN)C(=O)N[C@@H](CCCNC(=N)N)C(=O)N[C@@H](Cc2ccc(O)cc2)C(=O)O)CSSC1(C)C)[C@@H](C)O [Example 47, Lys-Hyp-Val-Ndab-Ile-Thr-Tyr-Pen-Asn-Arg-Dab-Thr-^DDab-Lys-Cys-Dab-Arg-Tyr] (HELM PEPTIDE1{K.[Hyp].V.[NCCN(CC(=O)[*:2])[*:1]].I.T.Y.[Pen].N.R.[Dab].T.[NCC[C@@H](N[*:1])C(=O)[*:2]].K.C.[Dab].R.Y}$PEPTIDE1,PEPTIDE1,8:R3-15:R3$$$V2.0) | 0% | 0.25 µg/mL | 0.0625 µg/mL | ≤0.03125 µg/mL |
| CC[C@H](C)[C@H](NC(=O)CN(CCN)C(=O)[C@@H](NC(=O)[C@@H]1C[C@@H](O)CN1C(=O)CNCCCN)C(C)C)C(=O)N[C@H](C(=O)N[C@@H](Cc1ccc(O)cc1)C(=O)N[C@@H]1C(=O)N[C@@H](CC(N)=O)C(=O)N[C@@H](CCCNC(=N)N)C(=O)N[C@@H](CCN)C(=O)N[C@@H]([C@@H](C)O)C(=O)N[C@H](CCN)C(=O)N[C@@H](CCCCN)C(=O)N[C@H](C(=O)N[C@@H](CCN)C(=O)N[C@@H](CCCNC(=N)N)C(=O)N[C@@H](Cc2ccc(O)cc2)C(=O)O)CSSC1(C)C)[C@@H](C)O [Example 48, Norn-Hyp-Val-Ndab-Ile-Thr-Tyr-Pen-Asn-Arg-Dab-Thr-^DDab-Lys-Cys-Dab-Arg-Tyr] (H-[Gly(N(CH2)3NH2)][Hyp]V[Gly(N-2-aminoethyl)]ITY[Pen]NR[Dab]T[dDab]KC[Dab]RY-OH; disulfide 8-15; N-terminus and C-terminus assumed) | 0% | 0.25 µg/mL | 0.125 µg/mL | 0.0625 µg/mL |
| CC[C@H](C)[C@H](NC(=O)CN(CCN)C(=O)[C@@H](NC(=O)[C@@H]1C[C@@H](O)CN1C(=O)CNCCCCN)C(C)C)C(=O)N[C@H](C(=O)N[C@@H](Cc1ccc(O)cc1)C(=O)N[C@@H]1C(=O)N[C@@H](CC(N)=O)C(=O)N[C@@H](CCCNC(=N)N)C(=O)N[C@@H](CCN)C(=O)N[C@@H]([C@@H](C)O)C(=O)N[C@H](CCN)C(=O)N[C@@H](CCCCN)C(=O)N[C@H](C(=O)N[C@@H](CCN)C(=O)N[C@@H](CCCNC(=N)N)C(=O)N[C@@H](Cc2ccc(O)cc2)C(=O)O)CSSC1(C)C)[C@@H](C)O [Example 49, Nlys-Hyp-Val-Ndab-Ile-Thr-Tyr-Pen-Asn-Arg-Dab-Thr-^DDab-Lys-Cys-Dab-Arg-Tyr] (H-[Nlys][Hyp]V[Gly(N-2-aminoethyl)]ITY[Pen]NR[Dab]T[dDab]KC[Dab]RY-OH; disulfide 8-15; N-terminus and C-terminus assumed) | 0% | 0.25 µg/mL | 0.125 µg/mL | 0.125 µg/mL |
| CC[C@H](C)[C@H](NC(=O)[C@@H]1C[C@@H](O)CN1C(=O)[C@@H](NC(=O)[C@@H]1C[C@@H](N)CN1C(=O)[C@@H](N)CCCCN)C(C)C)C(=O)N[C@H](C(=O)N[C@@H](Cc1ccc(O)cc1)C(=O)N[C@@H]1C(=O)N[C@@H](CC(N)=O)C(=O)N[C@@H](CCCNC(=N)N)C(=O)N[C@@H](CCN)C(=O)N[C@@H]([C@@H](C)O)C(=O)N[C@H](CCN)C(=O)N[C@@H](CCCCN)C(=O)N[C@H](C(=O)N[C@@H](CCN)C(=O)N[C@@H](CCCNC(=N)N)C(=O)N[C@@H](Cc2ccc(O)cc2)C(=O)O)CSSC1(C)C)[C@@H](C)O [Example 50, Lys-Pro((4R)NH2)-Val-Hyp-Ile-Thr-Tyr-Pen-Asn-Arg-Dab-Thr-^DDab-Lys-Cys-Dab-Arg-Tyr] (HELM PEPTIDE1{K.[N[C@@H]1C[C@@H](C(=O)[*:2])N([*:1])C1].V.[Hyp].I.T.Y.[Pen].N.R.[Dab].T.[NCC[C@@H](N[*:1])C(=O)[*:2]].K.C.[Dab].R.Y}$PEPTIDE1,PEPTIDE1,8:R3-15:R3$$$V2.0) | 0% | 0.125 µg/mL | 0.125 µg/mL | 0.0625 µg/mL |

— US20230295234A1, “ANTIMICROBIAL PEPTIDOMIMETICS” (SPEXIS AG, priority 2020, published 2023)
